Results as given in US20130150363A1, “Method of Treating Cancer Using a cMET and AXL Inhibitor and an ErbB Inhibitor” (GlaxoSmithKline, priority 2008, published 2013).

What was measured:
[1] = tested on: lung_H1975 tumor cells; assay: Cell growth inhibition (CellTiter-Glo), H1975; type: cell-based; conditions: Homo sapiens, NCI-H1975, 72 h, 3 days
[2] = tested on: MKN-45 gastric carcinoma cells; assay: Cell growth inhibition (CellTiter-Glo), MKN-45; type: cell-based; conditions: Homo sapiens, MKN-45, MKN-45 (HER3-over)
From the text: (§1) Esophageal carcinoma cell line OE33 was purchased from ECACC European Collection of Cell Cultures (UK). Breast cancer cell line JIMT-1 and gastric carcinoma cell line MKN-45 were purchased from Deutsche Sammlung von Mikroorganismen and Zellkulturen GmbH (Germany); KPL-4, a human breast cancer cell line was kindly provided by Prof. J Kurebayashi (Kawasaki Medical School, Kurashiki, Japan). […] The LICR-LON-HN5 head and neck carcinoma cell line (HN5) was a gift from the Institute of Cancer Research, Surrey, U.K. HN5C12 was developed by single-cell cloning of HN5 followed by exposure to increasing concentrations of lapatinib. […] Cell growth inhibition was determined via CellTiter-Glo cell viability assays. […] ATP levels were determined by adding Cell Titer Glo0 (Promega), incubating for 20 minutes then the luminescent signal was read on the SpectraMax M5 plate with a 0.5 second integration time. Cell growth was calculated relative to vehicle (DMSO) treated control wells. […] CI values were calculated with the interpolated IC50 values and the mutually non-exclusive equation derived by Chou and […](a)+Db/IC50(b)+(Da×Db)/(IC50(a)×IC50(b)) where IC50(a) is the IC50 of the inhibitor A; IC50(b) is the IC50 for the inhibitor B; […] […] EOHSA at each dose was calculated as the minimum difference in average % inhibition between the combination and each monotherapy, from the appropriate ANOVA contrast. […]

[3] = tested on: N87 gastric carcinoma cells; assay: Cell growth inhibition (CellTiter-Glo), N87; type: cell-based; conditions: Homo sapiens, 72 h, 3 days
From the text: Esophageal carcinoma cell line OE33 was purchased from ECACC European Collection of Cell Cultures (UK). Breast cancer cell line JIMT-1 and gastric carcinoma cell line MKN-45 were purchased from Deutsche Sammlung von Mikroorganismen and Zellkulturen GmbH (Germany); KPL-4, a human breast cancer cell line was kindly provided by Prof. J Kurebayashi (Kawasaki Medical School, Kurashiki, Japan). […] The LICR-LON-HN5 head and neck carcinoma cell line (HN5) was a gift from the Institute of Cancer Research, Surrey, U.K. HN5C12 was developed by single-cell cloning of HN5 followed by exposure to increasing concentrations of lapatinib. […] Cell growth inhibition was determined via CellTiter-Glo cell viability assays. […] BT474-J4 and HN5C12 were washed with PBS and plated in their culture media without lapatinib. […] ATP levels were determined by adding Cell Titer Glo0 (Promega), incubating for 20 minutes then the luminescent signal was read on the SpectraMax M5 plate with a 0.5 second integration time. Cell growth was calculated relative to vehicle (DMSO) treated control wells. […] EOHSA at each dose was calculated as the minimum difference in average % inhibition between the combination and each monotherapy, from the appropriate ANOVA contrast. […] The p-values for both synergy and antagonism were calculated using this adjustment.

[4] = tested on: OE33 esophageal carcinoma cells; assay: Cell growth inhibition (CellTiter-Glo), OE33; type: cell-based, human; conditions: 3 days
From the text: Esophageal carcinoma cell line OE33 was purchased from ECACC European Collection of Cell Cultures (UK). Breast cancer cell line JIMT-1 and gastric carcinoma cell line MKN-45 were purchased from Deutsche Sammlung von Mikroorganismen and Zellkulturen GmbH (Germany); KPL-4, a human breast cancer cell line was kindly provided by Prof. J Kurebayashi (Kawasaki Medical School, Kurashiki, Japan). […] The LICR-LON-HN5 head and neck carcinoma cell line (HN5) was a gift from the Institute of Cancer Research, Surrey, U.K. HN5C12 was developed by single-cell cloning of HN5 followed by exposure to increasing concentrations of lapatinib. […] Cell growth inhibition was determined via CellTiter-Glo cell viability assays. […] BT474-J4 and HN5C12 were washed with PBS and plated in their culture media without lapatinib. […] ATP levels were determined by adding Cell Titer Glo0 (Promega), incubating for 20 minutes then the luminescent signal was read on the SpectraMax M5 plate with a 0.5 second integration time. Cell growth was calculated relative to vehicle (DMSO) treated control wells. […] Excess Over Highest Single Agent (EOHSA) is defined as a statistically significant improvement in the combination compared to the component monotherapies. […] Analysis was conducted using two-factor analysis of variance with interaction (model terms were dose of drug A, dose of drug B, and interaction between doses of drug A and B), followed by linear contrasts between each combination group and corresponding monotherapies. Analysis was conducted using SAS (version 9, provided by SAS Institute, Cary, N.C.). EOHSA at each dose was calculated as the minimum difference in average % inhibition between the combination and each monotherapy, from the appropriate ANOVA contrast. Since there are many comparisons for the % inhibition endpoint, p-value adjustment for multiple comparisons was performed. Hommel's procedure was implemented in order to improve the power while retaining […] Error Rate (FWE) control by using a sequentially rejective method. The p-values for both synergy and antagonism were calculated using this adjustment.

[5] = tested on: JIMT-1 breast cancer cells; assay: Cell growth inhibition (CellTiter-Glo), JIMT-1; type: cell-based; conditions: Homo sapiens, JIMT-1, 72 h, 3 days
From the text: as §1

[6] = tested on: BT474-J4 cells; assay: Cell apoptosis assays (Cell Death ELISA, Caspase-Glo 3/7), BT474-J4; type: cell-based, human; conditions: BT474-J4, presence of HGF (FIG. 4, FIG. 5B)
Experimental: Cell apoptosis was measured by both a cell death ELISA method, which measures DNA fragmentation, a hallmark of apoptosis; and Caspase-Glo® 3/7 assay which detects the activity of caspase 3/7, one of the execution enzymes for apoptosis in cells.
The Cell Death ELISA^Plus kit (Roche, Mannheim, Germany) was used according to the manufacturer's instructions. Cells were seeded in 96-well plates at 10,000 per well. After 24 h, cells were dosed and grown for an additional 48 h in RPMI 1640 with 10% FBS in 5% CO2 at 37° C. Cytoplasmic fractions of control and treated cells were transferred into streptavidin-coated 96-well plates and incubated with biotinylated mouse antihistone antibody and peroxidase-conjugated mouse anti-DNA antibody at room temperature for 2 h. Absorbance was determined at 405-490 nm using a Spectra Max Gemini microplate reader (Molecular Devices, Sunnyvale, Calif.).
The Caspase-Glo® 3/7 assay (Promega) is a homogeneous luminescent assay that measures caspase-3 and -7 activities. Cells were seeded in 96-well plates at 5,000 per well. […] Caspase 3/7 activity was detected by adding luminogenic caspase-3/7 substrate, which contains the tetrapeptide sequence DEVD, in a reagent optimized for caspase activity, luciferase activity and cell lysis, according to the manufacturer's instructions.

| Structure (SMILES) | IC50 ([1]; lung_H1975, +HGF (2 ng/mL)) [µM] | IC50 ([1]; lung_H1975, −HGF) [µM] | IC50 ([2]; +HRG (10 ng/mL)) [µM] | IC50 ([2]; −HRG) [µM] | IC50 ([3]; gastric_N87, +HGF (2 ng/mL)) [µM] | IC50 ([3]; gastric_N87, −HGF) [µM] | IC50 ([4]; Homo sapiens, OE33, 72 h, eso_OE33, +HGF (2 ng/mL)) [µM] | IC50 ([4]; Homo sapiens, OE33, 72 h, eso_OE33, −HGF) [µM] | IC50 ([4]; eso_OE33, +HGF (2 ng/mL)) [µM] | IC50 ([4]; eso_OE33, −HGF) [µM] | IC50 ([5]; breast_JimT1, +HGF (2 ng/mL)) [µM] | IC50 ([5]; breast_JimT1, −HGF) [µM] | apoptosis induction (DNA fragmentation and caspase 3/7 activation) [6] |
| --- | --- | --- | --- | --- | --- | --- | --- | --- | --- | --- | --- | --- | --- |
| C#Cc1cccc(Nc2ncnc3cc(OCCOC)c(OCCOC)cc23)c1 [Erlotinib, N-(3-ethynylphenyl)-6,7-bis{[2-(methyloxy)ethyl]oxy}-4-quinazolinamine] | > 10 | > 10 |  |  |  |  |  |  |  |  |  |  |  |
| CS(=O)(=O)CCNCc1ccc(-c2ccc3ncnc(Nc4ccc(OCc5cccc(F)c5)c(Cl)c4)c3c2)o1 [Lapatinib, N-(3-chloro-4-{[(3-fluorophenyl)methyl]oxy}phenyl)-6-[5-({[2-(methylsulfonyl)ethyl]amino}methyl)-2-furanyl]-4-quinazolinamine] |  |  | 5.06 | 6.16 | 4.8 | 0.05 | > 10 | 6.5 | 5.52 | 6.52 | > 10 | > 10 | only in BT474 |
